The values below come from publication PMC2653189 (PLoS ONE, 2009).

For orientation: EC50 means the concentration that produces a half-maximal response. Broadly, the IC50 is the concentration that inhibits the measured activity by half.

One assay deals with MCF7. Briefly: Breast cancer cell line apoptosis assay (nucleosome ELISA). Type of assay: cell-based. Conditions: Homo sapiens, 24 hr, read-out: EC50 apoptosis induction. On the procedure:
(§1) Human breast carcinoma cell lines MDA-MB-468, MDA-MB-231, MBA-MD-435 and MCF7 were kindly provided by Dr. Powel H. Brown (Breast Cancer Center, Baylor College of Medicine). Breast cancer cell line, MDA-MB-453 was kindly provided by Dr. Shou Jiang (Breast Cancer Center, Baylor College of Medicine). All cell lines were grown in DMEM medium supplemented with 10% fetal bovine serum (FBS), 25,000 units penicillin G, 25,000 µg streptomycin, and 131.4 mg L-Glutamine and cultured in the incubator under the condition of 95% air, 5% CO2 at 37°C [33]. Cells were seeded at 2,500 cells/cm^2 into 12-well plates. At 80% confluency, cells were washed with PBS and supplemented with fresh medium containing compound or the topoisomerase I-inhibitor, camptothecin, at 0, 0.1, 0.3, 1, 3, 10, 30, 100, 300 µM. At 24 hours, treatment was terminated by removing the medium from each well. Cells were lysed with cell lysis buffer (600 µl for 30 minutes at 25°C). Cell lysate (200 µl) was centrifuged at 200 g for 10 minutes and 20 µl of each supernatant was assayed for nucleosomes using the Cell Death Detection ELISA (Roche Applied Science) as described by the manufacturer. The percent maximum nucleosome level was calculated by dividing the nucleosome level by the maximum nucleosome level achieved in the assay and multiplying by 100. This value was plotted as a function of the log compound concentration and the best-fitting curve and EC50 value determined using 4-Parameter Logistic Model/Dose Response/XLfit 4.2, IDBS software.
(§2) Figure 5 Apoptosis induction of breast cancer cell lines by compounds; selective apoptosis of cell lines that are Stat3 dependent. MDA-MB-468 (panel A), MDA-MB-231 (panel B), MDA-MB-435 (panel C), MCF7 (panel D) and MDA-MB-453 (panel E) were seeded in 12-well plates, grown overnight then treated with the indicated compound for 24 hr. Cells were centrifuged and the supernatants assayed for nucleosome levels by ELISA. The percent maximum nucleosome level was calculated (nucleosome level ÷ maximum nucleosome level achieved in the assay ×100) and plotted as a function of the log compound concentration. The best-fitting curve was determined using 4-ParameterLogistic Model/Dose Response One Site/XLfit 4.2, IDBS software and was used to determine the EC50 value (Table 3).
In general terms: In an ELISA, binding on a coated surface is turned into a signal by an enzyme label.

In the next assay the test system is MDA-MB-231. The description is as above. Format: cell-based. To be noted: Homo sapiens, 24 hr, read-out: EC50 apoptosis induction. Here is the method:
as §1, §2

For the next assay, the system named is MDA-MB-435. The assay is described as above. Format: cell-based. Conditions: Homo sapiens, 24 hr, read-out: EC50 apoptosis induction. Here is the method:
as §1, §2

For a further assay, the system named is MDA-MB-453. Described as above. Format: cell-based. Conditions: Homo sapiens, 24 hr, read-out: EC50 apoptosis induction. Here is the method:
as §1, §2

For the next assay, the system named is MDA-MB-468. The description is as above. Format: cell-based. To be noted: Homo sapiens, 24 hr, read-out: EC50 apoptosis induction. Here is the method:
as §1, §2

Assay [1] deals with IFN-γ-mediated Stat1 phosphorylation. The assay is described as follows: Immunoblot of IFN-γ-mediated Stat1 phosphorylation in HepG2 cells. Format: cell-based, human. To be noted: compound 300 µM 1 hour, IFN-γ 30 ng/ml 30 min. Here is the method:
(§3) The human hepatocellular carcinoma cell line (HepG2) was grown in 6-well plates under standard conditions. Cells were pretreated with compounds (0, 1, 3, 10, 30, 100 and 300 µM) for 1 hour then stimulated under optimal conditions with either interleukin-6 (IL-6; 30 ng/ml for 30 min) to activate Stat3 or interferon gamma (IFN-γ; 30 ng/ml for 30 min) to activate Stat1 [28]. Cultures were then harvested and proteins extracted using high-salt buffer, as described. Briefly, extracts were mixed with 2× sodium dodecyl sulfate (SDS) sample buffer (125 mM Tris-HCL pH 6.8; 4% SDS; 20% glycerol; 10% 2-mercaptoethanol) at a 1∶1 ratio and heated for 5 minutes at 100°C. Proteins (20 µg) were separated by 7.5% SDS-PAGE and transferred to polyvinylidene fluoride (PVDF) membrane (Millipore, Waltham, MA) and immunoblotted. Prestained molecular weight markers (BioRad; Hercules, CA) were included in each gel. Membranes were probed serially with antibody against Stat1 pY701 or Stat3 pY705 followed by antibody against Stat1 or Stat3 (Transduction labs, Lexington, KY) then antibody against β–actin (Abcam, Cambridge, MA). Membranes were stripped between antibody probing using Restore™ Western Blot Stripping Buffer (Thermo Fisher Scientific Inc., Waltham, MA) per the manufacturer's instructions. Horseradish peroxidase-conjugated goat-anti-mouse IgG was used as the secondary antibody (Invitrogen Carlsbad, CA) and the membranes were developed with enhanced chemiluminescence (ECL) detection system (Amersham Life Sciences Inc.; Arlington Heights, IL.).
Figure 2 Effect of compounds on ligand-mediated Stat3 and Stat1 phosphorylation. […] Cells were then stimulated with IL-6 (30 ng/ml) for 30 min. Protein extracts of cells were separated by SDS-PAGE, blotted and developed serially with antibodies to pStat3, total Stat3 and β-actin. Blots were stripped between each antibody probing. Band intensities were quantified by densitometry. The value of each pStat3 band was divided by its corresponding total Stat3 band intensity; the results were normalized to the DMSO-treated control value. This value was plotted as a function of the log compound concentration. The best-fitting curve was determined using 4-Parameter Logistic Model/Dose Response/XLfit 4.2, IDBS software and was used to calculate the IC50 value (Table 1). Each panel is representative of 3 or more experiments. In panel G, HepG2 cells were pretreated with DMSO alone or DMSO containing each of the compounds at a concentration of 300 µM for 60 min. Cells were then stimulated with IFN-γ (30 ng/ml) for 30 min. Protein extracts of cells were separated by SDS-PAGE and immunoblotted serially with antibodies to pStat1, total Stat1 and β-actin. Blots were stripped between each immunoblotting. The results shown are representative of 2 or more experiments.
On the technique in general: Immunoblotting shows a protein as a band on a membrane.

Assay [2] has as its system breast cancer cell lines with constitutive Stat3 activity—MDA-MB-468, MDA-MB-231 and MDA-MB-435. The assay is described as follows: Apoptosis assay, summary over the cell lines with constitutive Stat3 activity. Format: cell-based. Conditions: Homo sapiens. Here is the method:
as §1, with “100.” for “100. This value was plotted as a function of the log compound concentration and the best-fitting curve and EC50 value determined using 4-Parameter Logistic Model/Dose Response/XLfit 4.2, IDBS software.”
as §2, with “MDA-MB-468” for “Figure 5 Apoptosis induction of breast cancer cell lines by compounds; selective apoptosis of cell lines that are Stat3 dependent. MDA-MB-468”

In assay [3] the test system is cell lines MDA-MB-453 and MCF7. Briefly: Apoptosis assay, summary over the cell lines without constitutive Stat3 activity. Format: cell-based. Conditions: Homo sapiens. On the procedure: as §1, with “100.” for “100. This value was plotted as a function of the log compound concentration and the best-fitting curve and EC50 value determined using 4-Parameter Logistic Model/Dose Response/XLfit 4.2, IDBS software.”
as §2, with “MDA-MB-468” for “Figure 5 Apoptosis induction of breast cancer cell lines by compounds; selective apoptosis of cell lines that are Stat3 dependent. MDA-MB-468”

The target of another assay is Stat3 (Homo sapiens, UniProt P40763). Briefly: Stat3/pY-peptide binding assay (SPR, BIAcore). On the procedure: A control (Stat3 with DMSO but without compound) was run at the beginning and the end of each cycle (40 sample injections) to ensure that the integrity of the sensor chip was maintained throughout the cycle run. The average of the two controls was normalized to 100% and used to evaluate the effect of each compound on Stat3 binding. Responses were normalized by dividing the value at 2 min by the response obtained in the absence of compounds at 2 min and multiplying by 100.
For orientation: Surface plasmon resonance follows binding to a sensor surface in real time, without labels.

The test system of assay [4] is IL-6-mediated phosphorylation of Stat3. Briefly: Immunoblot of IL-6-mediated Stat3 phosphorylation in HepG2 cells. To be noted: Homo sapiens, compound 60 min, then IL-6 30 ng/ml 30 min, read-out: pStat3 IC50, inhibition of IL-6-mediated Stat3 phosphorylation. Type of assay: cell-based. On the procedure:
as §3
Figure 2 Effect of compounds on ligand-mediated Stat3 and Stat1 phosphorylation. […] Cells were then stimulated with IL-6 (30 ng/ml) for 30 min. Protein extracts of cells were separated by SDS-PAGE, blotted and developed serially with antibodies to pStat3, total Stat3 and β-actin. Blots were stripped between each antibody probing. Band intensities were quantified by densitometry. […] The best-fitting curve was determined using 4-Parameter Logistic Model/Dose Response/XLfit 4.2, IDBS software and was used to calculate the IC50 value (Table 1). […]

For assay [5], the system named is IL-6-mediated Stat3 nuclear translocation (GFP-Stat3α). Briefly: HTFM nuclear translocation assay in MEF/GFP-Stat3α cells. Type of assay: cell-based, murine. On the procedure: Confocal and high-throughput fluorescence microscopy (HTFM) of MEF/GFP-Stat3α cells were performed as described. Briefly, for confocal fluorescence microscopy, cells were grown in 6-well plates containing a cover slip. For HTFM, cells were seeded into 96-well CC3 plates at a density of 5,000 cells/well using an automated plating system. Cells were cultured under standard conditions until 85–90% confluent. Cells were pre-treated with compound for 1 hour at 37°C then stimulated with IL-6 (200 ng/ml) and IL-6sR (250 ng/ml) for 30 minutes to provide optimal Stat3 activation and nuclear translocation in these cells, as described. Cells were fixed with 4% formaldehyde in PEM Buffer (80 mM Potassium PIPES, pH 6.8, 5 mM EGTA pH 7.0, 2 mM MgCl2) for 30 minutes at 4°C, quenched in 1 mg/ml of NaBH4 (Sigma) in PEM buffer and counterstained for 1 min in 4,6-diamidino-2-phenylindole (DAPI; Sigma; 1 mg/ml) in PEM buffer. Cover slips were examined by confocal fluorescent microscopy. Plates were analyzed by automated HTFM using the Cell Lab IC Image Cytometer (IC100) platform and Cytoshop Version 2.1 analysis software (Beckman Coulter). Nuclear translocation is quantified by using the fraction localized in the nucleus (FLIN) measurement. FLIN values were normalized by subtracting the FLIN for unstimulated cells then dividing this difference by the maximum difference (delta, Δ) in FLIN (FLIN in cells stimulated with IL-6/sIL-6R in the absence of compound minus FLIN of unstimulated cells). This ratio was multiplied by 100 to obtain the percentage of maximum difference in FLIN and was plotted, where indicated, as a function of the log compound concentration. The best-fitting curve and IC50 value were determined using 4-Parameter Logistic Model/Dose Response/XLfit 4.2, IDBS software.
Figure 4 Inhibition of cytoplasmic-to-nuclear translocation of Stat3 assessed by confocal and high-throughput fluorescence microscopy (HTFM). […] Coverslips were examined by confocal fluorescent microscopy using filters to detect GFP (column one), DAPI (column two) or both (merge; column three). In panel B, MEF-GFP-Stat3 cells were grown in 96-well plates with optical glass bottoms and pre-treated with the indicated compound at the indicated concentrations in quadruplicate for 1 hour then stimulated with IL-6 (200 ng/ml) and IL-6sR (250 ng/ml) for 30 minutes. Cells were fixed and the plates were examined by high-throughput microscopy to determine the fluorescence intensity in the nucleus (FLIN). The percent of maximum change (delta, Δ) in FLIN was calculated as described in the Methods and plotted as a function of the log of the compound concentration. […] Best-fit curves were determined using 4-Parameter Logistic Model/Dose Response/XLfit 4.2, IDBS software and were used to calculate the IC50 values (Table 2).

[6] abbreviates: 24 hr, read-out: EC50 apoptosis induction, range over three cell lines.

Like-named read-outs stand apart in the source and are kept apart here.

Chain of Stat3 (P40763 whole entry, species assumed): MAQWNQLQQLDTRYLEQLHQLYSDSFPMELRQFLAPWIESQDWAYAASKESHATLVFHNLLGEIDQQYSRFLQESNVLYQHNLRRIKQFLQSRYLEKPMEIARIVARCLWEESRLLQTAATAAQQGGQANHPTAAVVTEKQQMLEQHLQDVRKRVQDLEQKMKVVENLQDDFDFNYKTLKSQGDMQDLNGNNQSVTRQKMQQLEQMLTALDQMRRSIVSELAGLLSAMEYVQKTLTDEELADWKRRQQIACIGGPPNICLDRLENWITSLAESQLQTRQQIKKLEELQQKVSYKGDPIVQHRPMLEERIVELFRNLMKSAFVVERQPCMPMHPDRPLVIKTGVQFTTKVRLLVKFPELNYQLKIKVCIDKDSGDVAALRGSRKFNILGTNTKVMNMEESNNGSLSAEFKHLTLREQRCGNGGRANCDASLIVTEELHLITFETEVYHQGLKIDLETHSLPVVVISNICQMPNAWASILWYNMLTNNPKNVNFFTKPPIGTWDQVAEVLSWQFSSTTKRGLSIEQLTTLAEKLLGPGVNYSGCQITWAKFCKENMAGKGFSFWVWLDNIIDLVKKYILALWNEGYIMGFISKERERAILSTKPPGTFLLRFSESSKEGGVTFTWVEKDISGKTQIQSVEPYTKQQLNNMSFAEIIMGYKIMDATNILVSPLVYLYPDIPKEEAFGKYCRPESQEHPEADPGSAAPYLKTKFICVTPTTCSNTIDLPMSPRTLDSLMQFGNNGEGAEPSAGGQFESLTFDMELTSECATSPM

As for `CC[C@@]1(O)C(=O)OCc2c1cc1n(c2=O)Cc2cc3ccccc3nc2-1` [CAM, camptothecin, reference compound], the concentration for a half-maximal effect (EC50) in the assay with MCF7 worked out at 0.13 µM; in the assay on MDA-MB-231, 1.62 µM; in the assay with MDA-MB-435, 1.64 µM; in the assay on MDA-MB-453 it was 0.93 µM; with MDA-MB-468, 0.74 µM.
Regarding `CCN1C(=O)C(=Cc2ccc(-c3ccc(C(=O)O)cc3)o2)SC1=S` [Cpd30, 4-{5-[(3-ethyl-4-oxo-2-thioxo-1,3-thiazolidin-5-ylidene)methyl]-2-furyl}benzoic acid], the “Block of IFN-γ-stimulated Stat1 phosphorylation” value in assay [1] is recorded as “did not”. Moreover, the 50% effective concentration (EC50) with MCF7 is above 300 µM; with MDA-MB-231 it was 92 µM; in the assay on MDA-MB-435 it was 16.3 µM; in the assay with MDA-MB-453 it was above 300 µM; in the assay with MDA-MB-468, 6.42 µM; in assay [2] (setting [6]), 6.4 to 92.2 µM. Besides, in assay [3] (concentrations up to 300 µM, read-out: EC50 apoptosis induction, MDA-MB-453 and MCF7), the EC50 is above 300 µM.
Consider `CCN1C(=O)C(=Cc2ccc(-c3cc(C(=O)O)ccc3Cl)o2)C(=O)N(CC)C1=S` [Cpd30-12, 4-chloro-3-{5-[(1,3-diethyl-4,6-dioxo-2-thioxotetrahydro-5(2H)-pyrimidinylidene)methyl]-2-furyl}benzoic acid], for which the IC50 was 114 µM on Stat3; 60 µM in assay [4]; above 300 µM in [5] (Mus musculus, compound 1 hour, then IL-6 200 ng/ml and IL-6sR 250 ng/ml 30 min, read-out: HTFM IC50, inhibition of IL-6-mediated Stat3 nuclear translocation). The “Block of IFN-γ-stimulated Stat1 phosphorylation” value in assay [1] is on record as “blocked Stat1 phosphorylation”. For the same molecule, in assay [5] (preincubation with compound), the “Block of ligand-mediated nuclear translocation of GFP-Stat3α (in words)” value was “not”.
Take `O=C(O)CSc1cc(NS(=O)(=O)c2ccc(C(=O)O)cc2)c2ccccc2c1O` [Cpd188, 4-[({3-[(carboxymethyl)thio]-4-hydroxy-1-naphthyl}amino)sulfonyl]benzoic acid]: the “Block of IFN-γ-stimulated Stat1 phosphorylation” value in [1] is “did not”. Also, the concentration giving a half-maximal response (EC50) was 17.2 µM with MCF7; 3.96 µM in the assay with MDA-MB-231; 7.01 µM in the assay with MDA-MB-435; 15.5 µM in the assay on MDA-MB-453; 0.73 µM in the assay on MDA-MB-468; 0.7 to 7 µM in [2] (setting [6]). Moreover, the EC50 in assay [2] (read-out: EC50 apoptosis induction, mean±SD over three cell lines) was 3.9 ± 3.1 µM; in assay [3] (read-out: EC50 apoptosis induction, mean±SD over MDA-MB-453 and MCF7), 16.4 ± 1.2 µM.
